Experimental data published in PubChem BioAssay (NCI).
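Assay format: 96-well plates, 48-hour exposure. GI50 is the concentration that inhibits growth by half. TGI is the concentration that stops growth completely.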

Key:
Assay in all cases: inhibition of tumour cell growth, NCI panel, 48 h
UO-31 renal = tested on: UO-31 renal
SF-539 CNS = tested on: SF-539 CNS
NCI-H460 lung = tested on: NCI-H460 lung
OVCAR-3 ovarian = tested on: OVCAR-3 ovarian
SF-295 CNS = tested on: SF-295 CNS
NCI-H226 lung = tested on: NCI-H226 lung
COLO 205 colon = tested on: COLO 205 colon
OVCAR-5 ovarian = tested on: OVCAR-5 ovarian
UACC-62 melanoma = tested on: UACC-62 melanoma
MALME-3M melanoma = tested on: MALME-3M melanoma
786-0 renal = tested on: 786-0 renal
MDA-MB-435 = tested on: MDA-MB-435
SF-268 CNS = tested on: SF-268 CNS
HOP-92 NSCLC = tested on: HOP-92 NSCLC
KM12 colon = tested on: KM12 colon
MCF7 breast = tested on: MCF7 breast
TK-10 renal = tested on: TK-10 renal
K-562 leukemia = tested on: K-562 leukemia
ACHN renal = tested on: ACHN renal
SK-MEL-2 melanoma = tested on: SK-MEL-2 melanoma
RXF 393 renal = tested on: RXF 393 renal
HOP-62 NSCLC = tested on: HOP-62 NSCLC
SK-MEL-28 melanoma = tested on: SK-MEL-28 melanoma
SK-OV-3 ovarian = tested on: SK-OV-3 ovarian
EKVX NSCLC = tested on: EKVX NSCLC
HCC-2998 colon = tested on: HCC-2998 colon
BT-549 breast = tested on: BT-549 breast
OVCAR-4 ovarian = tested on: OVCAR-4 ovarian
A549 NSCLC = tested on: A549 NSCLC
SN12C renal = tested on: SN12C renal
A498 renal = tested on: A498 renal
MDA-MB-231 breast = tested on: MDA-MB-231 breast
NCI-H522 lung = tested on: NCI-H522 lung
PC-3 prostate = tested on: PC-3 prostate
MOLT-4 leukemia = tested on: MOLT-4 leukemia
OVCAR-8 ovarian = tested on: OVCAR-8 ovarian
SW-620 colon = tested on: SW-620 colon
CAKI-1 renal = tested on: CAKI-1 renal
CCRF-CEM leukemia = tested on: CCRF-CEM leukemia
U251 CNS = tested on: U251 CNS
LOX IMVI melanoma = tested on: LOX IMVI melanoma
T-47D breast = tested on: T-47D breast
IGROV1 ovarian = tested on: IGROV1 ovarian
HT29 colon = tested on: HT29 colon
SNB-75 CNS = tested on: SNB-75 CNS
NCI-H23 lung = tested on: NCI-H23 lung
RPMI-8226 leukemia = tested on: RPMI-8226 leukemia
M14 melanoma = tested on: M14 melanoma
SNB-19 CNS = tested on: SNB-19 CNS
UACC-257 melanoma = tested on: UACC-257 melanoma
HS 578T breast = tested on: HS 578T breast
HCT-116 colon = tested on: HCT-116 colon
SK-MEL-5 melanoma = tested on: SK-MEL-5 melanoma
HCT-15 colon = tested on: HCT-15 colon
DU-145 prostate = tested on: DU-145 prostate
HL-60(TB) leukemia = tested on: HL-60(TB) leukemia
SR leukemia = tested on: SR leukemia
NCI/ADR-RES ovarian = tested on: NCI/ADR-RES ovarian

## CC(NCCC(c1ccccc1)c1ccccc1)c1ccccc1 (stereo unspecified)
UO-31 renal
  GI50: 2.19 µM
  TGI: 12.1 µM
SF-539 CNS
  GI50: 2.92 µM
  TGI: 9.01 µM
NCI-H460 lung
  GI50: 1.71 µM
  TGI: 3.26 µM
OVCAR-3 ovarian
  GI50: 3.21 µM
  TGI: 10.7 µM
SF-295 CNS
  GI50: 1.73 µM
  TGI: 3.86 µM
NCI-H226 lung
  GI50: 2.78 µM
  TGI: 13.8 µM
COLO 205 colon
  GI50: 1.53 µM
  TGI: 2.85 µM
OVCAR-5 ovarian
  GI50: 2.88 µM
  TGI: 11.4 µM
UACC-62 melanoma
  GI50: 1.62 µM
  TGI: 3.57 µM
MALME-3M melanoma
  GI50: 1.75 µM
  TGI: 3.44 µM
786-0 renal
  GI50: 1.81 µM
  TGI: 3.67 µM
MDA-MB-435
  GI50: 2.54 µM
  TGI: 7.76 µM
SF-268 CNS
  GI50: 4.48 µM
  TGI: 17.5 µM
HOP-92 NSCLC
  GI50: 1.05 µM
  TGI: 3.56 µM
KM12 colon
  GI50: 2.06 µM
  TGI: 4.85 µM
MCF7 breast
  GI50: 1.8 µM
  TGI: 3.63 µM
TK-10 renal
  GI50: 1.93 µM
  TGI: 4 µM
K-562 leukemia
  GI50: 2.42 µM
  TGI: 5.23 µM
ACHN renal
  GI50: 3.32 µM
  TGI: 12 µM
SK-MEL-2 melanoma
  GI50: 1.9 µM
  TGI: 3.77 µM
RXF 393 renal
  GI50: 1.46 µM
  TGI: 3.23 µM
HOP-62 NSCLC
  GI50: 1.36 µM
  TGI: 3.31 µM
SK-MEL-28 melanoma
  GI50: 1.76 µM
  TGI: 3.26 µM
SK-OV-3 ovarian
  GI50: 1.65 µM
  TGI: 3.81 µM
EKVX NSCLC
  GI50: 3.63 µM
  TGI: 16.5 µM
HCC-2998 colon
  GI50: 1.6 µM
  TGI: 3.07 µM
BT-549 breast
  GI50: 5.42 µM
  TGI: 17.6 µM
OVCAR-4 ovarian
  GI50: 2.15 µM
  TGI: 6.66 µM
A549 NSCLC
  GI50: 3.33 µM
  TGI: 12.8 µM
SN12C renal
  GI50: 2.42 µM
  TGI: 9.13 µM
A498 renal
  GI50: 1.45 µM
  TGI: 3.93 µM
MDA-MB-231 breast
  GI50: 2.17 µM
  TGI: 5.74 µM
NCI-H522 lung
  GI50: 1.81 µM
  TGI: 3.48 µM
PC-3 prostate
  GI50: 2.1 µM
  TGI: 6.96 µM
MOLT-4 leukemia
  GI50: 2.59 µM
  TGI: 7.15 µM
OVCAR-8 ovarian
  GI50: 1.7 µM
  TGI: 3.37 µM
SW-620 colon
  GI50: 1.71 µM
  TGI: 3.42 µM
CAKI-1 renal
  GI50: 2.73 µM
  TGI: 9.52 µM
CCRF-CEM leukemia
  GI50: 2.38 µM
  TGI: 8.73 µM
U251 CNS
  GI50: 1.59 µM
  TGI: 2.99 µM
LOX IMVI melanoma
  GI50: 1.59 µM
  TGI: 2.93 µM
T-47D breast
  GI50: 1.59 µM
  TGI: 3.29 µM
IGROV1 ovarian
  GI50: 2.89 µM
  TGI: 13.5 µM
HT29 colon
  GI50: 1.72 µM
  TGI: 3.39 µM
SNB-75 CNS
  GI50: 2.79 µM
  TGI: 10.9 µM
NCI-H23 lung
  GI50: 2.03 µM
  TGI: 7.81 µM
RPMI-8226 leukemia
  GI50: 1.92 µM
  TGI: 4.83 µM
M14 melanoma
  GI50: 1.73 µM
  TGI: 3.31 µM
SNB-19 CNS
  GI50: 1.56 µM
  TGI: 3.44 µM
UACC-257 melanoma
  GI50: 1.65 µM
  TGI: 4.02 µM
HS 578T breast
  GI50: 4.04 µM
  TGI: 23.9 µM
HCT-116 colon
  GI50: 1.66 µM
  TGI: 3.08 µM
SK-MEL-5 melanoma
  GI50: 1.6 µM
  TGI: 2.95 µM
HCT-15 colon
  GI50: 2.57 µM
  TGI: 7.83 µM
DU-145 prostate
  GI50: 3.09 µM
  TGI: 9.76 µM
HL-60(TB) leukemia
  GI50: 2.13 µM
  TGI: 4.19 µM
SR leukemia
  GI50: 1.92 µM
  TGI: 5.26 µM
NCI/ADR-RES ovarian
  GI50: 2.77 µM
  TGI: 7.68 µM
